Test results published in patent publication US20240327381A1, “Compounds and Compositions for Selective Degradation of Engineered Proteins” (Celgene Corporation, priority 2023, published 2024).

How the values were obtained:
Assay type in all cases: cell-based
[1] = target: T1, IKZF1 ZNF2_ZNF3 Q1F degron-tagged CD19 CAR (Homo sapiens, UniProt Q13422, Q146F); assay: Degradation of Q1F degron-tagged CD19 CAR in Jurkat cells (flow cytometry of CAR levels); conditions: for DC50: Jurkat cells expressing CD19 CAR tagged with IKZF1 ZNF2_ZNF3 Q1F, 18 hours at 37° C., CAR levels normalized to untreated cells, read-out: Q1F Jurkat IC50; for Dmax: Ymax is the % protein degraded, Jurkat cells expressing Q1F degron-tagged CD19 CAR, 18 hours, read-out: Q1F Jurkat-YMax
T1 construct: ZNF2_ZNF3 Q1F degron (GERPFFCNQCGASFTQKGNLLRHIKLHSGEKPFKCHLCNYACRRRDALTGHLRTHS); fused on or other part: anti-CD19 scFv, CD28 transmembrane domain, 4-1BB costimulatory domain, CD3 zeta signaling domain (the CAR that carries the degron), and Nluc
Summary of the method: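 Jurkat cells were lentivirally transduced with an anti-CD19 scFv/CD28 TM/4-1BB/CD3ζ CAR tagged with an IKZF1 ZNF2_ZNF3 Q1F degron–Nluc, then treated with compound titrations for 18 h at 37 °C. CAR surface levels were stained (20 min, 4 °C), read by flow cytometry and normalised to untreated cells. EC50 came from a four-parameter logistic fit; Ymin is the minimum % CAR remaining.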

[2] = target: T2, Helios (Homo sapiens, UniProt Q9UKS7); assay: Helios degradation in Jurkat/Helios/HiBit cells (Nano-Glo luminescence); conditions: 18 hr, read-out: Helios Jurkat Hibit IC50
T2 construct: endogenous in cells; host or cells: Jurkat cells, CRISPR/Cas9 knock-in of HiBit at the IKZF2 locus
Summary of the method: (§1)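 Jurkat cells carrying CRISPR-knocked-in C-terminal HiBit-tagged endogenous IKZF2 were treated with compound in DMEM/10% FCS (10,000 cells/well) for 18 h at 37 °C. HiBit signal was read by Nano-Glo luminescence after 30 min at RT. EC50 for degradation came from a four-parameter logistic fit, with Ymax as % protein degraded.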

[3] = target: T3, Helios (Homo sapiens, UniProt Q96SW2+Q9UKS7); assay: as above; conditions: Ymax is the % protein degraded, 18 hr
T3 construct: endogenous in cells; host or cells: Jurkat cells, CRISPR/Cas9 knock-in of HiBit at the IKZF2 locus
Summary of the method: as §1

T1 sequence (Q13422 whole entry Q146F, the tested form may be a part): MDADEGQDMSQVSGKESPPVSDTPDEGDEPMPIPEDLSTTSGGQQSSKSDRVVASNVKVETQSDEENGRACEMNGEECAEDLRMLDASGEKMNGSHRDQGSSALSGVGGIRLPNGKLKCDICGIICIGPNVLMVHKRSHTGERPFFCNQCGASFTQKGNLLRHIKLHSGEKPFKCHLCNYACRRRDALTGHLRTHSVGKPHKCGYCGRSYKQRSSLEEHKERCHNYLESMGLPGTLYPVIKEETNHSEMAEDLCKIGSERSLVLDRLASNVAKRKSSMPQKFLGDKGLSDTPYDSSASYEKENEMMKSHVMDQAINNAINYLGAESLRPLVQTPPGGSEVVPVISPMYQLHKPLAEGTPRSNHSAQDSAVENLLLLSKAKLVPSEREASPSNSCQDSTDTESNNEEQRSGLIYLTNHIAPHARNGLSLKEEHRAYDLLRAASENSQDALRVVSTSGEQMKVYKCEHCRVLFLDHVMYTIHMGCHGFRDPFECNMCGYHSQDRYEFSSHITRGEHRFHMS
T3 sequence (Q9UKS7 whole entry): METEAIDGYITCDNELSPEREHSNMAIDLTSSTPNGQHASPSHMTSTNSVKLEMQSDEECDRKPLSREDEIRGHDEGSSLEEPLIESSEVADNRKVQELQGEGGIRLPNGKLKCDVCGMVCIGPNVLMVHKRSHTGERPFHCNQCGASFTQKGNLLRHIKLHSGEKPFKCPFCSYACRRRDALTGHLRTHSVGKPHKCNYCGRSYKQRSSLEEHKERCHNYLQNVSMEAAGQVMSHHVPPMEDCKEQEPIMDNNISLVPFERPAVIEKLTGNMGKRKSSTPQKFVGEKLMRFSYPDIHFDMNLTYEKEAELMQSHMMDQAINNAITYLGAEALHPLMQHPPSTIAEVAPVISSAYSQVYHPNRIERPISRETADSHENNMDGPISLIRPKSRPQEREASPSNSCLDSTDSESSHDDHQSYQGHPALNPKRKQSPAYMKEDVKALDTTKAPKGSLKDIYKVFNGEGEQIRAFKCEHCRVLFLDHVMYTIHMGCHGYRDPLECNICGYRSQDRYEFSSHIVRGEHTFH
T3 sequence (Q96SW2 whole entry): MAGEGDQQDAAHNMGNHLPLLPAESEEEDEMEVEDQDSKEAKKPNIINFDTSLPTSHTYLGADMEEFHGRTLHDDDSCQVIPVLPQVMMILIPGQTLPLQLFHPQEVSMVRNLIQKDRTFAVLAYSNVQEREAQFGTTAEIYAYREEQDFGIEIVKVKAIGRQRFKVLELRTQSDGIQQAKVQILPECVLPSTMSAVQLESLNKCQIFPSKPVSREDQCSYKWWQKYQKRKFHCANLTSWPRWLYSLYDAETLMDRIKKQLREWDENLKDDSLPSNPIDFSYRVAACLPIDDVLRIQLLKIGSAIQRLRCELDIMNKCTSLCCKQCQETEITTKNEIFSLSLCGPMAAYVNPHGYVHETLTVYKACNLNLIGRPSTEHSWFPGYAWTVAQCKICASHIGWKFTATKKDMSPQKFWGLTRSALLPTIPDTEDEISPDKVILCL
T3 sequence (Q16531 whole entry partner): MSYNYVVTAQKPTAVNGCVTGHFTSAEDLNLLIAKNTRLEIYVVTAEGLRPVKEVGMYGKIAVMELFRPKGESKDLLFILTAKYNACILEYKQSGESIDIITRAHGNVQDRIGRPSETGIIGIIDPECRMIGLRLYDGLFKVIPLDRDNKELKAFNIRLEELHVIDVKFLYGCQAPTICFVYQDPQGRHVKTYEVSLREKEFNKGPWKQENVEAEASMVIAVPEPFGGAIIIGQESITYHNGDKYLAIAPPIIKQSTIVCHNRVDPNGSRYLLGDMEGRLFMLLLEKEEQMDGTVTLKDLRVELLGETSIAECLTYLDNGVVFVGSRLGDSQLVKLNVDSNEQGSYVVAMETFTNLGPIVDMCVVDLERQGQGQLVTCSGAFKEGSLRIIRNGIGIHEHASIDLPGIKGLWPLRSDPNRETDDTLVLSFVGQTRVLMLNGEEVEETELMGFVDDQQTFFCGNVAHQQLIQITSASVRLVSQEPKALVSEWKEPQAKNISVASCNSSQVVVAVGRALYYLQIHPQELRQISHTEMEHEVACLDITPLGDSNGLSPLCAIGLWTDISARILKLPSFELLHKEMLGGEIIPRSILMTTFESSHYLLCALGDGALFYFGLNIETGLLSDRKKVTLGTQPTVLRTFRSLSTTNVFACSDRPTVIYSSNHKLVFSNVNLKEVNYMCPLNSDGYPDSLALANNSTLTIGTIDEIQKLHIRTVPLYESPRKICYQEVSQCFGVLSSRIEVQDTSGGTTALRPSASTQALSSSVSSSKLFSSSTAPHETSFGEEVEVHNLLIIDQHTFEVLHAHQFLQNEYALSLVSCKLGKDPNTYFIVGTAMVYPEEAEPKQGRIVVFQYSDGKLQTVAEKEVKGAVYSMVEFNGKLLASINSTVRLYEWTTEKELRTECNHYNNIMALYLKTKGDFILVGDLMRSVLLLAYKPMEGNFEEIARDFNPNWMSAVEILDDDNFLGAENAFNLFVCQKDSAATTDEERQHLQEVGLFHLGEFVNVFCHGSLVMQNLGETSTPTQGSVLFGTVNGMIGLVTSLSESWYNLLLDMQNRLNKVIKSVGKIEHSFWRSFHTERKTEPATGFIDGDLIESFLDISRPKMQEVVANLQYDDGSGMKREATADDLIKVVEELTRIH
T2 sequence (Q9UKS7 whole entry): as the sequence (Q9UKS7 whole entry) above
T2 sequence (Q96SW2 whole entry, further chain): as the sequence (Q96SW2 whole entry) above
T2 sequence (Q16531 whole entry partner): as the sequence (Q16531 whole entry partner) above

DC50 [1] [nM] | Dmax [1] [%] | DC50 [2] [nM] | Helios Jurkat Hibit YMax [3] [%] | SMILES
3.32 | 89 | 65.1 | 65.5325 | CC1(C)Cc2cccc(CN3CCN(Cc4c(F)cc5c(c4F)CN(C4CCC(=O)NC4=O)C5=O)CC3)c2O1 (centres unmarked) [Compound 75, 3-(5-((4-((2,2-dimethyl-2,3-dihydrobenzofuran-7-yl)methyl)piperazin-1-yl)methyl)-4,6-difluoro-1-oxoisoindolin-2-yl)piperidine-2,6-dione]
4.89 | 88.8 | 6.3 | 72.1901 | O=C1CCC(N2Cc3c(cc(F)c(CN4CCN(Cc5ccc6c(c5)OCCO6)CC4)c3F)C2=O)C(=O)N1 (centres unmarked) [Compound 76, 3-(5-((4-((2,3-dihydrobenzo[b][1,4]dioxin-6-yl)methyl)piperazin-1-yl)methyl)-4,6-difluoro-1-oxoisoindolin-2-yl)piperidine-2,6-dione]
